Experiment: Critical water activity of solid forms, samples tested by powder X-ray diffraction
Assay type: physicochemical
Description: Critical water activity is a phase boundary above which a hydrate is a stable form. […] Values of aw. correspond to percent humidity, where the percent humidity is described as 100 x aw. Thus 0.1 aw corresponds to 10% humidity, 0.2 aw corresponds to 20% humidity, and so on. The claimed polymorphic forms of Compound 1 mono-hydrochloride interconvert between Form 1 and Form 2 at a critical water activity of between 0.60 and 0.65 (corresponding to a relative humidity of between 60% and 65%). The critical water activity of the free base form of Compound 1 is between 0.2 and 0.3 (corresponding to a relative humidity between 20% and 30%). It is noted that manufacturing processes are routinely run at relative humidities that exceed 30% relative humidity, but manufacturing processes run at relative humidities of >60% are unusual. Samples were tested using powder X-ray diffraction. Analysis was conducted using a Bruker AXS D8 Endeavor diffractometer equipped with a Cu radiation source. The divergence slit was set at 6 mm continuous illumination. Diffracted radiation was detected by a PSD-Lynx Eye detector, with the detector PSD opening set at 4.104 degrees. The X-ray tube voltage and amperage were set to 40 kV and 40 mA respectively. Data was collected in the Theta-Theta goniometer at the Cu wavelength from 3.0 to 40.0 degrees 2-Theta using a step size of 0.020 degrees and a step time of 0.3 second. Samples were prepared by placing them in a silicon low background sample holder and rotated during collection. Data were collected using Bruker DIFFRAC Plus software and analysis was performed by EVA diffract plus software.

Compound	PXRD Result (solid form) (Water Activity at Room Temperature 0.1 aw)	PXRD Result (solid form) (Water Activity at Room Temperature 0.2 aw)	PXRD Result (solid form) (Water Activity at Room Temperature 0.3 aw)	PXRD Result (solid form) (Water Activity at Room Temperature 0.5 aw)	PXRD Result (solid form) (Water Activity at Room Temperature 1.0 Aw)	PXRD Result (solid form) (Water Activity at Room Temperature 0.60 aw)	PXRD Result (solid form) (Water Activity at Room Temperature 0.65 aw)	PXRD Result (solid form) (Water Activity at Room Temperature 0.70 aw)	PXRD Result (solid form) (Water Activity at Room Temperature 0.75 aw)	PXRD Result (solid form) (Water Activity at Room Temperature 0.80 aw)
CC(C)c1cnc(-c2cc(Cl)ccc2F)cc1Nc1ccncc1C(=O)NC(CO)CO [Compound 1, Free Base, 4-(2-(5-chloro-2-fluorophenyl)-5-isopropylpyridin-4-ylamino)-N-(1,3-dihydroxypropan-2-yl)nicotinamide]	free base anhydrous	free base anhydrous	free base monohydrate	free base monohydrate	free base monohydrate					
CC(C)c1cnc(-c2cc(Cl)ccc2F)cc1Nc1ccncc1C(=O)NC(CO)CO.Cl [Compound 1, mono-HCl salt, 4-(2-(5-chloro-2-fluorophenyl)-5-isopropylpyridin-4-ylamino)-N-(1,3-dihydroxypropan-2-yl)nicotinamide mono hydrochloride]						Form 1	Form 2	Form 2	Form 2	Form 2

Reference: patent publication US20200199104A1, “Novel Polymorphic Forms of a TGFBeta Inhibitor” (PFIZER INC., priority 2018, published 2020)
